From patent publication EP4516309A1, “CRHR1 AGONISTS FOR USE IN THE TREATMENT OF SOCIAL ANXIETY DISORDERS” (Consejo Superior de Investigaciones Cientificas, priority 2023, dated 2025)

Target: T1, inhibitory DREADD (Homo sapiens, UniProt P08173, A203G/Y113C)
T1 construct: host or cells: ILA CRH+ neurons of CRH-Cre mice, Cre-dependent AAV2/8 transduction in vivo
T1 sequence (P08173 1-479 Y113C/A203G): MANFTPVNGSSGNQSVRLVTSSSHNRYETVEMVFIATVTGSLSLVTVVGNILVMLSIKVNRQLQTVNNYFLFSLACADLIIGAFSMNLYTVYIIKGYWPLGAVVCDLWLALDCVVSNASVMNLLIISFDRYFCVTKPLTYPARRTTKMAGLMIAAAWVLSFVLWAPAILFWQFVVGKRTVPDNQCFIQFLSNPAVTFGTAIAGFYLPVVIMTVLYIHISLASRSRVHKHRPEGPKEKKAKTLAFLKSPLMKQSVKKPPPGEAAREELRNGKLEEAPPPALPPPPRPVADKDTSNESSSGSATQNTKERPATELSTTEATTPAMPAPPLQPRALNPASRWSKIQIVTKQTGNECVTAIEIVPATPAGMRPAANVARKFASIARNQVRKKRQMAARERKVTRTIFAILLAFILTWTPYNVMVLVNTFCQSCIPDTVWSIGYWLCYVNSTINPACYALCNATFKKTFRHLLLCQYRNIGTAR
Test: Social novelty preference test with chemogenetic silencing of ILA CRH cells
Format: in vivo, CRH-Cre mice
Conditions: CNO 5 mg/kg intra-peritoneally 30 min prior to the learning trial; iDREADD in ILA CRH cells
Protocol: Injection coordinates were the following (in mm from Bregma): AP: 1.65, ML: ±0.1, DV: -2.6. Injections were done bilaterally with 100 nl injected per site. […]
Social novelty preference test. […] Using automatic tracking of the test mice (ANY-Maze, Stoelting), the inventors quantified the time the test mice spent in the immediate area surrounding each cup - and therefore, interacting with each stimulus mice - during learning and recall. Using the interaction time from the recall trial, the inventors calculated a discrimination index for social novelty preference as the following: D! = (time with novel - time with familiar) / total interaction time. […] The inventors also calculated the total time spent interacting with stimulus mice during each trial in order to verify that the sociability drive was not affected. […]

SMILES: C[N+]1([O-])CCN(C2=Nc3cc(Cl)ccc3Nc3ccccc32)CC1 [CNO, clozapine N-oxide]
- discrimination index for social novelty preference: not different from zero
- exploration of novel and familiar mice during recall: explored the novel and familiar mice to the same extent
